Where two headings read alike, the source gives them in different places.
Legend:
hCA IX = target: T1, hCA IX (Homo sapiens, UniProt Q16790); test: stopped-flow CO2 hydrase assay; assay type: biochemical
T1 construct: gene CA9; recombinant, obtained in-house; tumour-associated isoform
Source text: stopped-flow CO2 hydrase assay on hCA IX

hCA I = target: T2, hCA I (Homo sapiens, UniProt P00915); test: stopped-flow CO2 hydrase assay; assay type: biochemical
T2 construct: gene CA1; recombinant, obtained in-house; cytosolic isoform
Source text: stopped-flow CO2 hydrase assay on hCA I

hCA II = target: T3, hCA II (Homo sapiens, UniProt P00918); test: stopped-flow CO2 hydrase assay; assay type: biochemical; details: read-out: hCA I
T3 construct: gene CA2; recombinant, obtained in-house; cytosolic isoform
Source text: stopped-flow CO2 hydrase assay on hCA II

hCA XII = target: T4, hCA XII (Homo sapiens, UniProt O43570); test: stopped-flow CO2 hydrase assay; assay type: biochemical; details: […] HEPES pH […] Na2SO4, CO2 substrate; […] h preincubation
T4 construct: gene CA12; recombinant, obtained in-house; tumour-associated isoform
Source text: (§1) stopped-flow CO2 hydrase assay on hCA XII

hCA VII = target: T5, hCA VII (Homo sapiens, UniProt P43166); test: stopped-flow CO2 hydrase assay; assay type: biochemical; details: read-out: hCA I
T5 construct: gene CA7; recombinant, obtained in-house; cytosolic isoform
Source text: stopped-flow CO2 hydrase assay on hCA VII

[1] = stopped-flow CO2 hydrase assay; assay type: biochemical, Homo sapiens; details: read-out: hCA I
Source text: as §1

[2] = […] HEPES pH […] Na2SO4, CO2 substrate, […] h preincubation

T5 sequence (P43166 whole entry, canonical isoform): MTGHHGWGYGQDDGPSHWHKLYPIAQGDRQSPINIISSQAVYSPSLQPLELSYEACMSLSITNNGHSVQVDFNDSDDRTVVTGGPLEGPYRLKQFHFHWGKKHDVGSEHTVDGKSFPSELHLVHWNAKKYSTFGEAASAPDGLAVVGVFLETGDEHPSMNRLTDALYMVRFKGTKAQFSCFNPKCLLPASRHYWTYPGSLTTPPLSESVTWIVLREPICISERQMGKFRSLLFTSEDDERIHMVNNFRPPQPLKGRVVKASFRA
T2 sequence (P00915 2-261): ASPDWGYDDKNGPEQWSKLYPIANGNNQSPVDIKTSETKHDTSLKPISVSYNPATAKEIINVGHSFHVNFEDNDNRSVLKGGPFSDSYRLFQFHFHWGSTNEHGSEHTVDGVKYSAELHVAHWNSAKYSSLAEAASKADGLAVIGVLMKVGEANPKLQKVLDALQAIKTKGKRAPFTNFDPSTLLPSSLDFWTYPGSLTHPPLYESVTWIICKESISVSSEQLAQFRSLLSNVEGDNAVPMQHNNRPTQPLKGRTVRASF
T4 sequence (O43570 25-354 limits assumed): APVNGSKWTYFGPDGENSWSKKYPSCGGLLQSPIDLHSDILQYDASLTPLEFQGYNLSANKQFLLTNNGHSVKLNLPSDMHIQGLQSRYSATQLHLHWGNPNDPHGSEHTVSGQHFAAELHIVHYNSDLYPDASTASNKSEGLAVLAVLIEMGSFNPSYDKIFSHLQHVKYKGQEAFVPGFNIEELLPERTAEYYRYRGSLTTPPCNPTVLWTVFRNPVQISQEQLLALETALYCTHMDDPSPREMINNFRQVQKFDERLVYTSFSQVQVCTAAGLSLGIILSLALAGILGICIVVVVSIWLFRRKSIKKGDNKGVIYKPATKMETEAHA

| Structure (SMILES) | Ki (hCA IX) | Ki (hCA I) | Ki (hCA II) | Ki (hCA XII) | Ki (hCA IX; [2]) | Ki (hCA VII) | Ki [1] |
| --- | --- | --- | --- | --- | --- | --- | --- |
| NS(=O)(=O)Nc1ccc(S(=O)(=O)N2CCCC(C(=O)N3CCN(C(c4ccccc4)c4ccccc4)CC3)C2)cc1 (centres unmarked) [compound 8, benzhydryl piperazine derivative with nipecotic acid spacer (para)] | 1410 nM |  |  |  |  |  |  |
| NS(=O)(=O)Nc1ccc(S(=O)(=O)N2CCCC(C(=O)N3CCN(C(c4ccc(F)cc4)c4ccc(F)cc4)CC3)C2)cc1 (centres unmarked) [compound 9, fluorinated benzhydryl analogue of 8 (para)] | 902 nM |  |  |  |  |  |  |
| O=C(Cc1ccccc1Nc1c(Cl)cccc1Cl)NCCOc1ccc2oc(=O)ccc2c1 [compound 1, 6-substituted coumarin containing diclofenac] |  | > 10000 nM | > 10000 nM | 92.6 nM | 28.9 nM | > 10000 nM |  |
| NS(=O)(=O)Nc1cccc(S(=O)(=O)NCCC(=O)N2CCN(C(c3ccccc3)c3ccccc3)CC2)c1 [compound 5, benzhydryl piperazine derivative with beta-alanine spacer (meta benzenesulfonamide)] | 1020 nM |  |  |  |  |  |  |
| O=C(Cc1ccccc1Nc1c(Cl)cccc1Cl)NCCOc1ccc2ccc(=O)oc2c1 [compound 3, 7-substituted coumarin containing diclofenac] |  | > 10000 nM | > 10000 nM | 80.9 nM | 89.7 nM | > 10000 nM |  |
| NS(=O)(=O)Nc1ccccc1S(=O)(=O)N1CCCC(C(=O)N2CCN(C(c3ccccc3)c3ccccc3)CC2)C1 (centres unmarked) [compound 7, benzhydryl piperazine derivative with nipecotic acid spacer (ortho)] | > 10000 nM |  |  |  |  |  |  |
| NS(=O)(=O)Nc1cccc(S(=O)(=O)N2CCCC(C(=O)N3CCN(C(c4ccc(F)cc4)c4ccc(F)cc4)CC3)C2)c1 (centres unmarked) [compound 6, fluorinated benzhydryl piperazine derivative with nipecotic acid spacer (meta benzenesulfonamide)] | 296 nM |  |  |  |  |  |  |
| CC(C(=O)NCCOc1ccc2ccc(=O)oc2c1)c1ccc(-c2ccccc2)c(F)c1 (centres unmarked) [compound 4, 7-substituted coumarin containing flurbiprofen] | 159 nM | > 10000 nM | > 10000 nM |  |  | > 10000 nM | > 10000 nM |
| CC(C(=O)NCCOc1ccc2oc(=O)ccc2c1)c1ccc(-c2ccccc2)c(F)c1 (centres unmarked) [compound 2, 6-substituted coumarin containing flurbiprofen] |  | > 10000 nM |  |  | 23.5 nM | > 10000 nM |  |

— publication PMC7534274 (Journal of Enzyme Inhibition and Medicinal Chemistry, 2020)
